The source of these data is ChEMBL document CHEMBL1156249, “Highly effective binding of viologens by p-sulfonatocalixarenes for the treatment of viologen poisoning” (J Med Chem, 2009).

Series [1] can be described thus: Binding affinity to viologen paraquat cation assessed as compound-viologen complex stability at pH 2 by isothermal calorimetry. A general note: Isothermal titration calorimetry measures the heat released or taken up as one component is titrated into another.
A short description of series [2]: Binding affinity to viologen paraquat cation assessed as decrease in hydroxyl radical production at pH 7.2 by cyclic voltammetry.
Series [3] is described as follows: Binding affinity to viologen diquat cation assessed as decrease in hydroxyl radical production at pH 7.2 by cyclic voltammetry.
The nature of series [4]: Binding affinity to viologen diquat cation assessed as compound-viologen complex stability at pH 2 by isothermal calorimetry.
Series [5] can be described thus: Binding affinity to viologen paraquat cation assessed as compound-viologen complex stability at pH 7.2 by isothermal calorimetry.
Series [6] can be described thus: Binding affinity to viologen diquat cation assessed as compound-viologen complex stability at pH 7.2 by isothermal calorimetry.
Series [7] is described as follows: Binding affinity to viologen paraquat cation at pH 7.2 by microcalorimetric titration method.
Series [8] in a line: Binding affinity to viologen diquat cation at pH 7.2 by microcalorimetric titration method.
Series [9] can be described thus: Binding affinity to viologen paraquat cation at pH 1.5 by microcalorimetric titration method.
Series [10] in a line: Binding affinity to viologen diquat cation at pH 1.5 by microcalorimetric titration method.
Series [11] is described as follows: Binding affinity to viologen paraquat cation assessed as compound-viologen complex formation by NMR spectroscopy.
The nature of series [12]: Binding affinity to viologen diquat cation assessed as compound-viologen complex formation by NMR spectroscopy.
The subject of series [13] is Mus musculus. In words: Reduction of viologen poisoning in Kunming mouse assessed as viologen-associated mortality rate at 100 uL/20g body weight, iv for 13 days measured on day 14. Type of series: functional. Details: scale not given: the % may be the effect or the level left.
For series [14], the system named is Mus musculus. The experiment in a line: Reduction of viologen poisoning in Kunming mouse assessed as change in body weight at 100 uL/20g body weight, iv for 13 days measured on day 14 (reference value: 14 g). Type of series: functional.
The test system of series [15] is Mus musculus. The experiment in a line: Toxicity in Kunming mouse assessed as change in body weight at 100 uL/20g body weight, iv for 13 days measured on day 14 (reference value: 32.8 +/- 3.8 g). Conditions: in vivo, 312 h. Type of series: organism-based.
In series [16] the test system is Mus musculus. In words: Reduction of viologen poisoning in Kunming mouse assessed as protection from viologen-associated pathological changes in lung at 100 uL/20g body weight, iv for 13 days measured on day 14 by hematoxylin and eosin staining-based microscopy. It counts as functional, organism-based.
The subject of series [17] is Mus musculus. In words: Reduction of viologen poisoning in Kunming mouse assessed as protection from viologen-associated pathological changes in liver at 100 uL/20g body weight, iv for 13 days measured on day 14 by hematoxylin and eosin staining-based microscopy. It counts as functional, organism-based.
The test system of series [18] is Mus musculus. In words: Reduction of viologen poisoning in Kunming mouse assessed as viologen-associated mortality rate at 100 uL/20g body weight, iv administered immediately after viologen challenge for 13 days measured on day 14. Also noted: scale not given: the % may be the effect or the level left. It counts as functional.
The subject of series [19] is Mus musculus. In words: Reduction of viologen poisoning in Kunming mouse assessed as viologen-associated mortality rate at 100 uL/20g body weight, iv administered 1 hr after viologen challenge for 13 days measured on day 14. Details: scale not given: the % may be the effect or the level left. It counts as functional.
The subject of series [20] is Mus musculus. The experiment in a line: Reduction of viologen poisoning in Kunming mouse assessed as viologen-associated mortality rate at 100 uL/20g body weight, iv administered 30 mins after viologen challenge for 13 days measured on day 14. It counts as functional. Details: scale not given: the % may be the effect or the level left.
In series [21] the test system is Mus musculus. In words: Reduction of viologen poisoning in Kunming mouse assessed as viologen-associated mortality rate at 100 uL/20g body weight, iv administered 2 hrs after viologen challenge for 13 days measured on day 14. It counts as functional. Details: scale not given: the % may be the effect or the level left.
Series [22] relates to Mus musculus. In words: Reduction of viologen poisoning in Kunming mouse assessed as protection from viologen-associated pathological changes in lung at 100 uL/20g body weight, iv administered immediately after viologen challenge for 13 days measured on day 14 by hematoxylin and eosin staining-based microscopy. Type of series: functional, organism-based.
Series [23] relates to Mus musculus. In words: Reduction of viologen poisoning in Kunming mouse assessed as protection from viologen-associated pathological changes in lung at 100 uL/20g body weight, iv administered 30 mins after viologen challenge for 13 days measured on day 14 by hematoxylin and eosin staining-based microscopy. Type of series: functional, organism-based.
The subject of series [24] is Mus musculus. The experiment in a line: Reduction of viologen poisoning in Kunming mouse assessed as protection from viologen-associated pathological changes in lung at 100 uL/20g body weight, iv administered 1 hr after viologen challenge for 13 days measured on day 14 by hematoxylin and eosin staining-based microscopy. Type of series: functional, organism-based.
Series [25] relates to Mus musculus. The experiment in a line: Reduction of viologen poisoning in Kunming mouse assessed as protection from viologen-associated pathological changes in lung at 100 uL/20g body weight, iv administered 2 hrs after viologen challenge for 13 days measured on day 14 by hematoxylin and eosin staining-based microscopy. Type of series: functional, organism-based.
Series [26] deals with Mus musculus. In words: Reduction of viologen poisoning in Kunming mouse assessed as change in body weight at 100 uL/20g body weight, iv administered 30 mins after viologen challenge for 13 days measured on day 14 (reference value: 14 g). Type of series: functional.
In series [27] the test system is Mus musculus. The experiment in a line: Reduction of viologen poisoning in Kunming mouse assessed as change in body weight at 100 uL/20g body weight, iv administered immediately after viologen challenge for 13 days measured on day 14 (reference value: 14 g). Type of series: functional.
Series [28] deals with Mus musculus. In words: Reduction of viologen poisoning in Kunming mouse assessed as change in body weight at 100 uL/20g body weight, iv administered 1 hr after viologen challenge for 13 days measured on day 14 (reference value: 14 g). Type of series: functional.
In series [29] the test system is Mus musculus. The experiment in a line: Reduction of viologen poisoning in Kunming mouse assessed as change in body weight at 100 uL/20g body weight, iv administered 2 hrs after viologen challenge for 13 days measured on day 14 (reference value: 14 g). Type of series: functional.

Each structure is given as a SMILES string. Active and inactive are the calls of the source. The rule behind the calls is not given here.

Turning to `O=S(=O)(O)c1cc2c(O)c(c1)Sc1cc(S(=O)(=O)O)cc(c1O)Sc1cc(S(=O)(=O)O)cc(c1O)Sc1cc(S(=O)(=O)O)cc(c1O)S2`, the Ks was 2.22 10^3/M in series [1], 2.39 10^4/M in [4], 8.68 10^3/M in [5] and 4.57 10^4/M in series [6]. Moreover, the outcome in [2] and in series [3] was Active.

Turning to `O=S(=O)(O)c1cc2c(O)c(c1)Cc1cc(S(=O)(=O)O)cc(c1O)Cc1cc(S(=O)(=O)O)cc(c1O)Cc1cc(S(=O)(=O)O)cc(c1O)C2`, the outcome in series [7], in [8], in [9], in [10], in series [11] and in series [12] was Active. The result in series [2] and in series [3] was Active. Also, the Ks in series [1] was 3.09 10^4/M; in series [4] it was 5.4 10^5/M; in series [5], 9.33 10^4/M; in [6], 7.95 10^5/M.

Take `O=S(=O)(O)c1cc2c(O)c(c1)Cc1cc(S(=O)(=O)O)cc(c1O)Cc1cc(S(=O)(=O)O)cc(c1O)Cc1cc(S(=O)(=O)O)cc(c1O)Cc1cc(S(=O)(=O)O)cc(c1O)C2`: the result in [7], in [8], in [9], in [10], in series [11] and in series [12] was Active. Moreover, the result (in series [2]; in [3]; in the series with Mus musculus [16]; with Mus musculus [17]; in the series on Mus musculus [22]; in the series with Mus musculus [23]) was Active. The outcome with Mus musculus [24] and in the series on Mus musculus [25] was Active. The Ks was 5.5 10^3/M in series [1], 1.12 10^5/M in series [4], 2.51 10^5/M in [5] and 3.23 10^6/M in [6]. Besides, the Activity in the series with Mus musculus [13] came out at 20%; in the series on Mus musculus [14] it was 30.8 g; in the series with Mus musculus [15], 33.4 g; in the series with Mus musculus [18] it was 40%; in the series with Mus musculus [19] it was 0%; with Mus musculus [20] it was 40%. Besides, the Activity was 40% in the series on Mus musculus [21]; 31 g with Mus musculus [26]; 31 g with Mus musculus [27]; 31 g in the series on Mus musculus [28]; 31 g in the series with Mus musculus [29].
